Test results from ChEMBL document CHEMBL5346880, “ATP-competitive inhibitors of human DNA topoisomerase IIα with improved antiproliferative activity based on N-phenylpyrrolamide scaffold” (Eur J Med Chem, 2023).
≈ marks a conversion by molar mass, not a printed value.

Assays:
[1] = Thermodynamic aqueous solubility of compound in PBS buffer at pH 7.4 at 25 degreeC measured after 24 hrs by UPLC analysis; format: physicochemical; details: read-out: Therm_solubility
[2] = biological target: T1, DNA topoisomerase 2-alpha (Homo sapiens, UniProt P11388); assay: Inhibition of human DNA topoisomerase 2 alpha assessed as relaxation of supercoiled plasmid pNO1 DNA incubated for 30 mins by fluorescence based analysis
[3] = Metabolic stability in rat liver S9 fraction assessed as half life at 100 uM measured upto 120 mins in presence of NADPH by HPLC analysis; format: ADME, subcellular
[4] = tested on: HepG2; assay: cells; details: Homo sapiens, HepG2, 72 h
Description: Cytotoxicity against human HepG2 cells assessed as inhibition of cell growth incubated for 72 hrs by MTS assay

[5] = tested on: MCF7; assay: cells; details: Homo sapiens, MCF7, 72 h
Description: Cytotoxicity against human MCF7 cells assessed as inhibition of cell growth incubated for 72 hrs by MTS assay

[6] = tested on: K562; assay: Cytotoxicity against human K562 cells assessed as reduction in cell viability at 10 uM by MTT assay; format: functional, cell-based
[7] = biological target: T1, DNA topoisomerase 2-alpha; assay: Inhibition of human DNA topoisomerase 2 alpha assessed as ATP hydrolysis measured for 30 mins by absorbance based assay
[8] = Cytotoxicity against HEK293 cells assessed as inhibition of cell growth incubated for 72 hrs by MTS assay; format: toxicity, cell-based; details: human
[9] = Selectivity index, ratio of IC50 for HEK293 cells to IC50 for human HepG2 cells; format: toxicity; details: HEK293 cells versus HepG2 cells, read-out: Ratio IC50
[10] = Selectivity index, ratio of IC50 for HEK293 cells to IC50 for human MCF7 cells; format: toxicity; details: HEK293 cells versus MCF7 cells, read-out: Ratio IC50
[11] = biological target: T2, DNA topoisomerase 1 (Homo sapiens, UniProt P11387); assay: Inhibition of human DNA Topoisomerase 1 assessed as relaxation of supercoiled plasmid pBR322 DNA incubated for 30 mins by ethidium bromide staining based agarose gel electrophoresis
T2 sequence (P11387 whole entry): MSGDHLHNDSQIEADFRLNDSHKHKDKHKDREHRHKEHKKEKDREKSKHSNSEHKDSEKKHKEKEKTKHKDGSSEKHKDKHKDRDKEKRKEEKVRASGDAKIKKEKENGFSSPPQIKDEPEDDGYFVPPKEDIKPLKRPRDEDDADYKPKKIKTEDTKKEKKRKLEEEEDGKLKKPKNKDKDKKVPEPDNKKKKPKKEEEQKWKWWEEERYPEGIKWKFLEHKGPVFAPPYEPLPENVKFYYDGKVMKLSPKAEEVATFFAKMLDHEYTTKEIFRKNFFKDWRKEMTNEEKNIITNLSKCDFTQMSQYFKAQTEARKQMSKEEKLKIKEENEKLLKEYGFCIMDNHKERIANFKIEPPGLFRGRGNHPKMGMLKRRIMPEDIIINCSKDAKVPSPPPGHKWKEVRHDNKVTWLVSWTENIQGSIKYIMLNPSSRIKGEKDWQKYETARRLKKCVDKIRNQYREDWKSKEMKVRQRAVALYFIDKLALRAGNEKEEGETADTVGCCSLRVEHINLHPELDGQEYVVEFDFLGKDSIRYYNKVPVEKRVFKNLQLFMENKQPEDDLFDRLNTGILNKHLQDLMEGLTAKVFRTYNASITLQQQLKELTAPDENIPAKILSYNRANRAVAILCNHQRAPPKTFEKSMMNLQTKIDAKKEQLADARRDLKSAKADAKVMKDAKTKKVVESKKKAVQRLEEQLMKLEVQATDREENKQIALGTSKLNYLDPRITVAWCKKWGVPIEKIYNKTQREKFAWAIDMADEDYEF

T1 sequence (P11388 whole entry): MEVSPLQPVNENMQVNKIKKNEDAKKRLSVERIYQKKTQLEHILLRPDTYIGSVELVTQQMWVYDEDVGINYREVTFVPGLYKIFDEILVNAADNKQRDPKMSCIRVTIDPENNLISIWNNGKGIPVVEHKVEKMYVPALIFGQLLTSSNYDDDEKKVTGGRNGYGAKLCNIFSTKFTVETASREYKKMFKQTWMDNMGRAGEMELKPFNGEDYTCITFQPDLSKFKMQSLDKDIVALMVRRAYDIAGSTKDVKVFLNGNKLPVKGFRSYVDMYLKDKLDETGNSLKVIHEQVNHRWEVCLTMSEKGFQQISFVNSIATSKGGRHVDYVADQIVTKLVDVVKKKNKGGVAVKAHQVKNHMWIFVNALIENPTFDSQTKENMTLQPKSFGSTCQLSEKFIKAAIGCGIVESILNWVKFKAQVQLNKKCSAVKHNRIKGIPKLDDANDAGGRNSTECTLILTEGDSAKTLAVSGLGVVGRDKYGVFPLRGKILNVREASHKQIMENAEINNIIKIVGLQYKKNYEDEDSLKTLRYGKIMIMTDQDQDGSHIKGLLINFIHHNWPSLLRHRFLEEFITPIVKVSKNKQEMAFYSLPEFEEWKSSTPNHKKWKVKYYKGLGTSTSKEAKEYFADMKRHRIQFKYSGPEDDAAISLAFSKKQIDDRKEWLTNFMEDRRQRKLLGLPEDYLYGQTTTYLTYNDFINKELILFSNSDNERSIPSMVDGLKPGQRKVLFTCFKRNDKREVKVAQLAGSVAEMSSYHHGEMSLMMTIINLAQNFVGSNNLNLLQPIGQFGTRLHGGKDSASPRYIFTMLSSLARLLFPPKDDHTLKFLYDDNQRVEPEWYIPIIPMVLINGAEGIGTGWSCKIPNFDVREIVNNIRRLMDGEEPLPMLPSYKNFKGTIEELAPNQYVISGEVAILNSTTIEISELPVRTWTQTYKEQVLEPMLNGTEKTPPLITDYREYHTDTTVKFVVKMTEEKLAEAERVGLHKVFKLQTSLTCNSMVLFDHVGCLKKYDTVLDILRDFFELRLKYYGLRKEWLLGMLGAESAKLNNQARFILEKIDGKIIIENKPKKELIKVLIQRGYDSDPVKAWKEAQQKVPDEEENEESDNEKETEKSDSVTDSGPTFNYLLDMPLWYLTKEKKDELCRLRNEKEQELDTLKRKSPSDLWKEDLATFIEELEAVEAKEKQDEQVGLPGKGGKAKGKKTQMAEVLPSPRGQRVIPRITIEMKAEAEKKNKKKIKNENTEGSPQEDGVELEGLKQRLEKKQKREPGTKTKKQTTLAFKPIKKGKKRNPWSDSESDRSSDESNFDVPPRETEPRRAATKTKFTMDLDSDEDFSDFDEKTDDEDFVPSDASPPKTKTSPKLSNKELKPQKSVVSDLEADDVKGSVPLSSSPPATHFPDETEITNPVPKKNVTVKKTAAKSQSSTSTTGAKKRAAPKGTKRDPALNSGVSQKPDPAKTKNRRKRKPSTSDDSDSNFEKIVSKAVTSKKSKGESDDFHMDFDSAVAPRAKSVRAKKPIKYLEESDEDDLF

Row | Compound | IC50 [2] [µM] | further results
1 | Cc1[nH]c(C(=O)Nc2ccc(C(=O)NCC3CCNCC3)cc2OC(C)C)c(Cl)c1Cl.Cl | 2.9 | solubility thermodynamic at 24 h [1]: 15 µM
2 | Cc1[nH]c(C(=O)Nc2cc(C(N)=O)ccc2OCCN)c(Cl)c1Cl | 18 | –
3 | Cc1[nH]c(C(=O)Nc2ccccc2OCc2cccc(C(=O)NCCN)c2)cc1F | > 100 | –
4 | COc1ccc(NC(=O)c2cc(Br)c(Br)[nH]2)c(C(=O)NCc2ccc(C(=O)O)cc2)c1 | 39 | half-life at 100 µM [3]: 4.83 h
5 | Cc1[nH]c(C(=O)Nc2ccc(C(N)=O)cc2NCCN)c(Cl)c1Cl.Cl | > 100 | half-life at 100 µM [3]: > 5 h
6 | COC(=O)[C@@H](C)NC(=O)c1ccc(NC(=O)c2[nH]c(C)c(Cl)c2Cl)c(OC2CCNCC2)c1 | 45 | IC50 [4]: 9.8 µM; IC50 [5]: 8.7 µM
7 | Cc1[nH]c(C(=O)Nc2ccc(C(=O)N3CCCC(N)C3)cc2OC(C)C)c(Cl)c1Cl (centres undefined) | 32 | –
8 | Cc1[nH]c(C(=O)Nc2ccc(C(N)=O)cc2OCC(=O)N2CCCC(N)C2)c(Cl)c1Cl (centres undefined) | 8.3 | –
9 | Cc1[nH]c(C(=O)Nc2ccc(C(=O)NC3CCNCC3)cc2OC(C)C)c(Cl)c1Cl | 4.5 | –
10 | Cc1[nH]c(C(=O)Nc2ccccc2OCc2cccc(C(=O)NC3CCNC3)c2)c(Cl)c1Cl.Cl (centres undefined) | 6.3 | solubility thermodynamic at 24 h [1]: 15 µM; IC50 [6]: 0.57 µM
11 | CCc1[nH]c(C(=O)Nc2ccc(C(N)=O)cc2OC(C)C)nc1Cl | 6.6 | half-life at 100 µM [3]: > 5 h
12 | Cc1[nH]c(C(=O)Nc2ccc(C(N)=O)cc2OCc2cccc(C(=O)NCC(=O)O)c2)c(Cl)c1Cl | 3.5 | –
13 | Cc1[nH]c(C(=O)Nc2ccccc2OC2CCN(C(=O)OC(C)(C)C)CC2)c(Cl)c1Cl | > 100 | –
14 | Cc1[nH]c(C(=O)Nc2ccc(C(N)=O)cc2OCc2cccc(C(=O)NCCN)c2)c(Cl)c1Cl.Cl | 1 | half-life at 100 µM [3]: > 5 h
15 | Cc1[nH]c(C(=O)Nc2ccccc2OCc2cccc(C(=O)NCCN)c2)c(Cl)c1Cl.Cl | 3 | IC50 [7]: 2.3 µM; IC50 at 72 h [8]: 27 µM; half-life at 100 µM [3]: > 5 h; IC50 [4]: 15 µM; solubility thermodynamic at 24 h [1]: 18 µM; IC50 [5]: 9 µM; selectivity ratio [9]: 1.8; selectivity ratio [10]: 3
16 | Cc1[nH]c(C(=O)Nc2ccc(C(=O)NCC(=O)O)cc2OC(C)C)c(Cl)c1Cl | 7.2 | IC50 [4]: > 50 µM; IC50 [5]: > 50 µM
17 | Cc1[nH]c(C(=O)Nc2ccc(C(N)=O)cc2N2CCOC(C)C2)c(Cl)c1Cl (centres undefined) | > 100 | –
18 | Cc1[nH]c(C(=O)Nc2cc(C(=O)O)ccc2OC2CCNCC2)c(Cl)c1Cl | > 100 | –
19 | Cc1[nH]c(C(=O)Nc2ccccc2OCc2cccc(C(=O)O)c2)c(Cl)c1Cl | 29 | solubility thermodynamic at 24 h [1]: 2.1 µM (≈ 0.88 µg/mL)
20 | Cc1[nH]c(C(=O)Nc2ccccc2OCc2cccc(C(=O)N3CCCC(N)C3)c2)c(Cl)c1Cl (centres undefined) | 27 | IC50 at 72 h [8]: 1.7 µM; IC50 [4]: 1.9 µM; IC50 [5]: 1.3 µM; selectivity ratio [9]: 0.9; IC50 [6]: 0.77 µM; selectivity ratio [10]: 1.3
21 | Cc1[nH]c(C(=O)Nc2ccc(C(=O)N3CCNCC3)cc2OC(C)C)c(Cl)c1Cl | > 100 | –
22 | Cc1[nH]c(C(=O)Nc2ccc(C(N)=O)cc2N2CCOCC2)c(Cl)c1Cl | > 100 | –
23 | Cc1[nH]c(C(=O)Nc2ccc(C(N)=O)cc2NC(C)C)c(Cl)c1Cl | 13 | –
24 | C[C@]12CC[C@H]3[C@@H](CCC4=CC(=O)CC[C@@]43C)[C@@H]1CC[C@@H]2O [TESTOSTERONE] | – | half-life at 100 µM [3]: 0.142 h
25 | NCCNC(=O)c1cccc(COc2ccccc2NC(=O)c2cc(Cl)c(Cl)[nH]2)c1 | 76 | –
26 | O=C(O)c1ccc(CCNC(=O)c2cc(O)ccc2NC(=O)c2cc(Br)c(Br)[nH]2)cc1 | 22 | –

Row | Compound | IC50 [2] [µM] | further results
27 | Cc1[nH]c(C(=O)Nc2ccccc2OC2CCN(C(=O)OC(C)(C)C)C2)c(Cl)c1Cl (centres undefined) | > 100 | –
28 | CCc1cnc(C(=O)Nc2ccc(C(N)=O)cc2OC(C)C)[nH]1 | > 100 | –
29 | NS(=O)(=O)c1ccc(CNC(=O)c2cc(O)ccc2NC(=O)c2cc(Br)c(Br)[nH]2)cc1 | > 100 | –
30 | NCCNC(=O)c1cccc(COc2ccccc2NC(=O)c2cc(Br)c(Br)[nH]2)c1 | 45 | –
31 | Cc1[nH]c(C(=O)Nc2ccccc2OC2CCNCC2)c(Cl)c1Cl.Cl | – | half-life at 100 µM [3]: > 5 h
32 | Cc1[nH]c(C(=O)Nc2ccc(C(=O)N[C@@H](Cc3ccccc3)C(=O)O)cc2OC(C)C)c(Cl)c1Cl | 5 | IC50 [4]: > 50 µM; IC50 [5]: > 50 µM
33 | Cc1[nH]c(C(=O)Nc2ccc(O)cc2C(=O)NCc2ccc(C(=O)O)cc2)c(Cl)c1Cl | 24 | –
34 | CCNC(=O)Nc1ccc(OC2CCNCC2)c(NC(=O)c2[nH]c(C)c(Cl)c2Cl)c1 | 38 | IC50 [4]: 38 µM; IC50 [5]: 33 µM
35 | Cc1[nH]c(C(=O)Nc2ccc(C(N)=O)cc2OCc2cccc(C(=O)NCCC(=O)O)c2)c(Cl)c1Cl | 3.4 | –
36 | NCCNC(=O)c1cccc(COc2ccccc2NC(=O)c2cc([N+](=O)[O-])c[nH]2)c1 | > 100 | –
37 | Cc1[nH]c(C(=O)Nc2cc(C(N)=O)ccc2OC(C)C)c(Cl)c1Cl | > 100 | –
38 | Cc1[nH]c(C(=O)Nc2ccc(C(=O)NC3CCCNC3)cc2OC(C)C)c(Cl)c1Cl.Cl (centres undefined) | 1.3 | half-life at 100 µM [3]: > 5 h; solubility thermodynamic at 24 h [1]: 4.6 µM
39 | CCc1[nH]c(C(=O)Nc2ccccc2OCc2cccc(C(=O)NCCN)c2)nc1Cl | 37 | –
40 | Cc1[nH]c(C(=O)Nc2ccccc2OCc2cccc(C(N)=O)c2)c(Cl)c1Cl | > 100 | –
41 | Cc1[nH]c(C(=O)Nc2ccc(C(N)=O)cc2OCC(=O)N2CCCC(NC(=O)OC(C)(C)C)C2)c(Cl)c1Cl (centres undefined) | > 100 | –
42 | Cc1[nH]c(C(=O)Nc2ccccc2OCc2cccc(C(=O)NCCN)c2)cc1Cl | 35 | –
43 | COc1ccc(NC(=O)c2[nH]c(C)c(Cl)c2Cl)c(C(=O)NCc2ccc(C(=O)O)cc2)c1 | 67 | half-life at 100 µM [3]: > 5 h
44 | Cc1[nH]c(C(=O)Nc2cc(C(=O)O)ccc2OC2CCN(C(=O)OC(C)(C)C)CC2)c(Cl)c1Cl | 38 | –
45 | Cc1ccc(C(=O)Nc2ccccc2OCc2cccc(C(=O)NCCN)c2)[nH]1 | > 100 | –
46 | Cc1[nH]c(C(=O)Nc2ccc(C(N)=O)cc2OC2CCNCC2)c(Cl)c1Cl.Cl | – | half-life at 100 µM [3]: > 5 h
47 | COc1ccc(NC(=O)c2[nH]c(C)c(Br)c2Br)c(C(=O)NCCc2ccc(C(=O)O)cc2)c1 | 25 | –
48 | CCc1nc2nc(Nc3ccc4nc(OCCN5CCOCC5)ccc4c3)nc(NC(C)(C)C)c2[nH]1 | 0.73 | IC50 [4]: 11 µM; IC50 [5]: 7.7 µM
49 | Cc1[nH]c(C(=O)Nc2cc(C(N)=O)ccc2OC2CCNC2)c(Cl)c1Cl (centres undefined) | 32 | –
50 | COc1cc(NS(C)(=O)=O)ccc1Nc1c2ccccc2nc2ccccc12 [AMSACRINE] | – | IC50 [11]: 74 µM
51 | Cc1[nH]c(C(=O)Nc2ccccc2OCc2cccc(C(=O)NC3CCCNC3)c2)c(Cl)c1Cl.Cl (centres undefined) | 7.7 | IC50 at 72 h [8]: 2.1 µM; half-life at 100 µM [3]: > 5 h; IC50 [4]: 0.13 µM; solubility thermodynamic at 24 h [1]: 10 µM; IC50 [5]: 0.15 µM; selectivity ratio [9]: 16; IC50 [6]: 0.19 µM; selectivity ratio [10]: 14
